Data as given in patent US20180291043A1, “BENZOCYCLOOCTENE-BASED AND INDENE-BASED ANTICANCER AGENTS” (BAYLOR UNIVERSITY, priority 2016, published 2018).
“Also recorded” adds a separate entry of the source. Like-named read-outs stand apart in the source and are kept apart here.

Legend:
SK-OV-3 [1] = conditions: Data from Devkota et. al., 2016; read-out: GI50 (μM) SRB assay SK-OV-3; cited from earlier work
DU-145 [2] = conditions: Data from Devkota et. al., 2016; read-out: GI50 (μM) SRB assay DU-145; cited from earlier work
NCI-H460 [3] = conditions: Data from Devkota et. al., 2016; read-out: GI50 (μM) SRB assay NCI-H460; cited from earlier work
tubulin = assay: Colchicine binding assay (inhibition of [3H]colchicine binding to tubulin)
Protocol: Inhibition of [^3H]colchicine binding to tubulin was measured using reaction mixtures (100 μL each) containing 1.0 μM tubulin, 5.0 μM [^3H]colchicine (from Perkin-Elmer), 5% (v/v) dimethyl sulfoxide, […], and components that stabilize the colchicine binding activity of tubulin (Hamel et al., 1981) (1.0 M monosodium glutamate [adjusted to pH 6.6 with HCl in a 2.0 M stock solution], 0.5 mg/mL bovine serum albumin, 0.1 M glucose-1-phosphate, 1.0 mM MgCl2, and 1.0 mM GTP). […] Reactions were stopped with 2.0 mL of ice-cold water, and the reaction mixtures were placed on ice. Each sample was poured onto a stack of two DEAE-cellulose filters (from Whatman), followed by 6 mL of ice-cold water. The samples were aspirated under reduced vacuum. The filters were washed three times with 2 mL water and placed into vials containing 5 mL of Biosafe II scintillation cocktail. Samples were counted 18 h later in a Beckman scintillation counter. Samples with inhibitors were compared to samples with no inhibitor, and percent inhibition was determined. All samples were corrected for the amount of radiolabel bound to the filters in the absence of tubulin.

[4] = test system: purified bovine brain tubulin; conditions: Data from Pettit et al., 2000; read-out: Inhibition of tubulin polymerization IC50 (μM) ± SD; cited from earlier work
[5] = test system: MCF7-luc-GFP-mCherry breast tumor; assay: Bioluminescence imaging (BLI) of vascular disruption in tumor-bearing mice; type: in vivo, SCID mice; conditions: for reduction in bioluminescence (decrease compared to baseline or saline control): single dose 120 mg/kg ip, 4 h after compound injection, p<0.05
Protocol: Human breast cancer cells, MCF7-luc-GFP-mCherry (ATCC), were transfected sequentially with a lentivirus containing firefly luciferase reporter, GFP and mCherry reporter genes, as described in Liu et al., 2012. Highly expressing stable clones were isolated. Induction of tumors was carried out by injecting 10^6 cells mixed with 50% Matrigel™ (BD Biosciences, San Jose, Calif.) into the right upper ventral mammary fat pads of female SCID-NOD mice (UTSW breeding colony). Tumors were allowed to grow to a size of 10-12 mm in diameter, determined by calipers, before selection for BLI. All animal procedures were approved by the University of Texas Southwestern Medical Center Institutional Animal Care and Use Committee.
Bioluminescence imaging was carried out as described in Liu et al., 2012. Briefly, anesthetized, tumor bearing mice (O2, 2% isoflurane, Henry Schein Inc., Melville, N.Y.) were injected subcutaneously in the fore-back neck region with 80 μL of a solution of luciferase substrate, D-luciferin (sodium salt, 120 mg/kg, in saline, Gold Biotechnology, St. Louis, Mo.). Mice were maintained under anesthesia (2% isoflurane in oxygen, 1 dm^3/min), while baseline bioluminescence imaging was performed using a Caliper Xenogen IVIS® Spectrum (Perkin-Elmer, Alameda, Calif.). A series of BLI images was collected over 35 min using the following settings: auto exposure time, f-stop=2, Field of view=D, binning=4 (medium). Light intensity-time curves obtained from these images were analyzed using Living Image® software and light emission compared based on area under the light emission curve. Mice were injected intraperitoneally with either 120 μL of saline (vehicle), CA4P (provided by Mateon Therapeutics, Inc.; 120 mg/kg in saline as used in Mason et al., 2011 or analogue 24 (120 mg/kg) in saline immediately after baseline BLI. Bioluminescence imaging was repeated, with new luciferin injections 4, 24, and 48 h later.
Bioluminescence imaging (BLI) is a highly valuable modality with diverse applications in a wide range of biological models and systems. BLI is a particularly useful tool for assessing and quantifying in vivo blood flow reduction following treatment with a VDA. In the current study MCF7 human breast cancer cells, which had been previously transfected stably to express the enzyme luciferase, as well as two fluorescent proteins, as designated by MCF7-luc-GFP-mCherry were implanted in SCID mice. Since the luciferase substrate luciferin can be delivered to the tumor via the blood stream, damage to the vessels by a VDA can be quantified by measurement of reduced bioluminescence upon injection of luciferin. […]

[6] = test system: MCF7-luc-GFP-mCherry breast tumor; assay: Histological assessment of tumor necrosis (H&E); type: in vivo, SCID mice; conditions: 120 mg/kg, 48 h post treatment
Protocol: Following the 48 h BLI data acquisition, the tumors were excised, bisected and fixed in 4% paraformaldehyde solution. Tumor tissue was processed for paraffin embedding, sectioned and stained by routine methods. H&E staining was performed on one cross section from each tumor. Whole mount high resolution microscopy was obtained using a Zeiss Axioscan Z1 digital slide scanner. […] Thus, analogue 24 may be a therapeutically useful VDA.

DU-145 [7] = assay: SRB assay, growth inhibition, DU-145; type: cell-based, human; conditions: 48 h treatment, average of n ≥ 3
Protocol: (§1) Inhibition of growth of human cancer cells was assessed using the sulforhodamine B assay (SRB), as described in Monks et al., 1991. Cancer cell lines (DU-145, SK-OV-3, and NCI-H460) were plated at 7500-8000 cells/well into 96-well plates using DMEM supplemented with 5% fetal bovine serum/1% gentamicin sulfate and incubated for 24 h at 37° C. in a humidified incubator. Compound serial dilutions were then added. After 48 h treatment, the cells were fixed with trichloroacetic acid (10% final concentration), washed, dried, stained with sulforhodamine B dye (Acid red 52), washed to remove excess dye, and dried. SRB dye was solubilized, and absorbances were measured at wavelength 540 nm and normalized to values at wavelength 630 nm using an automated Biotek plate reader.

SK-OV-3 [8] = assay: SRB assay, growth inhibition, SK-OV-3; type: cell-based, human; conditions: 48 h treatment, average of n ≥ 3
Protocol: as §1

NCI-H460 [9] = assay: SRB assay, growth inhibition, NCI-H460; type: cell-based, human; conditions: 48 h treatment, average of n ≥ 3
Protocol: as §1

[10] = test system: purified bovine brain tubulin; assay: Inhibition of tubulin polymerization (tubulin assembly); type: biochemical; conditions: 10 μM tubulin, extent of assembly after 20 min at 30° C.; read-out: Inhibition of tubulin polymerization IC50 (μM) ± SD
Protocol: Inhibition of Tubulin Polymerization
Tubulin assembly experiments were performed in 0.25 mL reaction mixtures (final volume) (Hamel, 2003). The mixtures contained 1 mg/mL (10 μM) purified bovine brain tubulin, 0.8 M monosodium glutamate (pH 6.6), 4% (v/v) dimethyl sulfoxide, 0.4 mM GTP, and different compound concentrations. All reaction components except GTP were preincubated for 15 min at 30° C. in 0.24 mL. The mixtures were cooled to 0° C., and 10 μL of 10 mM GTP were added. Reaction mixtures were transferred to cuvettes held at 0° C. in Beckman DU-7400 and DU-7500 spectrophotometers equipped with electronic temperature controllers. The temperature was jumped to 30° C., taking about 30 s, and polymerization was followed at 350 nm for 20 min.

[11] = Limited dose escalation study (tolerability); type: in vivo, non-tumor bearing SCID mice; conditions: dose of 120 mg/kg; dose escalation 60-150 mg/kg; MTD not yet determined
[12] = test system: human cancer cell lines (DU-145, SK-OV-3, NCI-H460); assay: SRB cytotoxicity, statements over the three human cancer cell lines; type: cell-based; conditions: all three human cancer cell lines
Protocol: as §1

[13] = inhibitor at 5 μM, 1.0 μM tubulin, 5.0 μM [3H]colchicine

SMILES	GI50 (DU-145 [7]; Homo sapiens, DU-145) [nM]	GI50 (SK-OV-3 [8]; Homo sapiens, SK-OV-3) [nM]	GI50 (NCI-H460 [9]; Homo sapiens, NCI-H460) [nM]	IC50 [10] [µM]	% Inhibition of colchicine binding ± SD (tubulin; [13])	further results
COc1ccc(/C=C\c2cc(OC)c(OC)c(OC)c2)cc1O [CA4]	–	–	–	–	–	GI50 (SK-OV-3 [1]): 0.00506 µM; GI50 (DU-145 [2]): 0.00602 µM; GI50 (NCI-H460 [3]): 0.005 µM; % Inhibition of colchicine binding ± SD (tubulin; inhibitor at 1 μM): […]; IC50 [4]: […]
COc1ccc(/C=C\c2cc(OC)c(OC)c(OC)c2)cc1OP(=O)(O)O [CA4P, Combretastatin A-4P, reference compound]	–	–	–	–	–	reduction in bioluminescence (decrease compared to baseline or saline control) [5]: approximately 80%; tumor necrosis (H&E staining) compared with saline control [6]: much more extensive necrosis; GI50 (DU-145 [7]): 3.36 nM; GI50 (SK-OV-3 [8]): 1.9 nM; GI50 (NCI-H460 [9]): 2.82 nM; IC50 [4]: > 20 µM
COc1ccc2c(c1O)CC=C2c1cc(OC)c(OC)c(OC)c1 [Compound 31, 6-Methoxy-3-(3′,4′,5′-trimethoxyphenyl)-1H-inden-7-ol]	362	704	388	11	17 ± 5 (5 μM) %	–
COc1cc(C2=CCCCCc3c2ccc(OC)c3OP(=O)([O-])[O-])cc(OC)c1OC.[Na+].[Na+] [Compound 24, Sodium 2-methoxy-5-(3′,4′,5′-trimethoxyphenyl)-benzocyclooct-5-en-1-yl phosphate]	41	36.6	26	> 20	–	tolerability of dose [11]: tolerated; bioluminescence intensity at 24 and 48 h ([5]; 120 mg/kg ip, 24 and 48 h post administration, phosphate): the effect continued at both 24 and 48 h; also recorded: remained significantly below baseline values; vascular shutdown / reduction of blood flow as evidenced by BLI ([5]; 120 mg/kg, 4 h post administration, phosphate): significant vascular shutdown; also recorded: significant in vivo reduction of blood flow; reduction in bioluminescence (decrease compared to baseline or saline control) [5]: approximately 80%; tumor necrosis (H&E staining) compared with saline control [6]: much more extensive necrosis; GI50 values / cytotoxicity range in words [12]: submicromolar
COc1cc(C2=CCc3c2ccc(OC)c3OP(=O)(O)O)cc(OC)c1OC [Compound 32, Sodium 6-methoxy-3-(3′,4′,5′-trimethoxyphenyl)-1H-inden-7-yl phosphate]	3340	334	1500	> 20	–	–
COc1ccc2c(c1)CCCCC=C2c1cc(OC)c(OC)c(OC)c1 [Compound 21, 2-Methoxy-5-(3′,4′,5′-trimethoxyphenyl)-benzocyclooct-5-ene]	570	400	431	3 ± 0.1	29 ± 5 (5 μM) %	–
COc1ccc2c(c1O)CCCCC=C2c1cc(OC)c(OC)c(OC)c1 [Compound 23, 1-Hydroxy-2-methoxy-5-(3′,4′,5′-trimethoxyphenyl)-benzocyclooct-5-ene]	105	81.1	107	1.2	78%	GI50 values / cytotoxicity range in words [12]: submicromolar
COc1cc(C2=CCc3c2ccc(OC)c3OC)cc(OC)c1OC [Compound 28, 6,7-Dimethoxy-3-(3′,4′,5′-trimethoxyphenyl)-1H-indene]	34600	9460	42200	> 20	–	–
COc1cc(C2=CCCCCc3c2ccc(OC)c3OC)cc(OC)c1OC [Compound 20, 1,2-Dimethoxy-5-(3′,4′,5′-trimethoxyphenyl)-benzocyclooct-5-ene]	448	512	395	4.5 ± 0.5	31 ± 0.6 (5 μM) %	–
COc1ccc2c(c1O)CCCC=C2c1cc(OC)c(OC)c(OC)c1 [KGP18, reference compound]	–	–	–	1.4	–	GI50 (DU-145 [7]): 0.0249 nM; GI50 values / cytotoxicity range in words [12]: subnanomolar; GI50 values / cytotoxicity range in words ([12]; listed as KPG18): sub-nM; GI50 (SK-OV-3 [8]): 0.0543 nM; GI50 (NCI-H460 [9]): 0.0418 nM
COc1ccc2c(c1)CC=C2c1cc(OC)c(OC)c(OC)c1 [Compound 29, 6-Methoxy-3-(3′,4′,5′-trimethoxyphenyl)-1H-indene]	4660	6150	4020	> 20	–	–
